Test results as given in patent publication US20220233640A1, “GALANIN- AND GALANIN RECEPTOR BASED COMPOUNDS FOR THE TREATMENT OF LIVER FIBROSIS” (United State Govermment as represented by the Department of …, priority 2019, published 2022).
Ends that are not written are not given here.

Test system: FVBN and Mdr2KO mice
Assay: Non-hepatic effects: serum biomarkers of heart (CK) and kidney (CREA, BUN), IDEXX assay system
Assay type: in vivo, mouse
Parameters: CREA / BUN: unit not given here
Details: for effects on heart (CK) and kidneys (CREA, BUN): FVBN and Mdr2KO mice, vs vehicle-treated mice; for CK / BUN / CREA: serum
Protocol: FVB/N (FVBN) and Mdr2^−/− (Mdr2KO) mice were purchased from Jackson Laboratory (Bar Harbor, Me.) and maintained in a temperature-controlled environment at 20-22° C. with a 12:12 hours light-dark cycle, having free access to food and drinking water. All animal procedures were performed in accord with the guidelines of Baylor Scott and White (Temple, Tex.) Institutional Animal Care and Use Committee, with approved protocols. In time-course experiments, 1 week, 1 months, 2 months and 4 months old male and female FVBN and Mdr2KO mice were used. In experiments designed to measure the effect of various agonists and antagonists of Gal receptors, on the extent of liver fibrosis in Mdr2KO mice, 2 months old, male and female Mdr2KO mice were used, as well as FVBN mice as negative controls. Four to five animals in each group of age/gender/type (FVBN or Mdr2KO) were used. In parallel, an equal number of 2 months old, male and female FVBN and MDR2KO mice were treated with vehicle only (saline or 20% DMSO) via the same type of minipumps. Galanin, M871 and M40 peptides were dissolved in saline or 20% DMSO in saline, depending on their solubility, and administered by using Alzet osmotic minipumps (Cupertino, Calif.). Galanin, M871 and M40, were administered at a rate of 4 nmol/Kg/day (mice weights being 25-30 g). Vivo-morpholino oligos including two sequences specific to mouse GalR1, and one mouse GalR1 mismatch control, were administered at a rate of 25 μg/mouse/day, for 14 days, after which the mice were euthanized with euthasol, followed by exsanguination and collection of liver tissue.
Serum alanine aminotransferase (ALT), aspartate aminotransferase (AST), alkaline phosphatase (ALKP), CREA, BUN and CK were measured using the IDEXX Catalyst One instrument from IDEXX Laboratories, Inc (Houston, Tex.).
To investigate possible adverse effects of GalR antagonists on vital organs other than the liver, blood biomarkers of the heart (creatine kinase, CK) and kidneys (creatinine, CREA; blood urea nitrogen, BUN) were investigated in FVBN and Mdr2KO mice when treated with GalR1 vivo morpholino, M871, and M40 as compared to vehicle-treated mice.
Referring to Table 2, non-hepatic effects of GalR1 vivo morpholino, M871, and M40 Gal receptor antagonists on FVBN mice are shown. Several serum biomarkers including creatine kinase (CK) for heart, creatinine (CREA) and blood urea nitrogen (BUN) for kidney, were assessed by using IDEXX assay system. Normal range: CK, 68-1070 U/L; CREA, […]; BUN, […].

Substance	effects on heart (CK) and kidneys (CREA, BUN)	CK (Female FVBN mice) [U/L]	CK (Female Mdr2KO mice) [U/L]	CK (Male FVBN mice) [U/L]	CK (Male Mdr2KO mice) [U/L]	BUN (Female FVBN mice)	CREA (Female FVBN mice)	BUN (Female Mdr2KO mice)	CREA (Female Mdr2KO mice)	BUN (Male FVBN mice)	CREA (Male FVBN mice)	BUN (Male Mdr2KO mice)	CREA (Male Mdr2KO mice)
GWTLNSAGYLLGPPPALALA-NH2 [M40]	no effects on the heart or kidneys	151.30 ± 19.90	163.33 ± 63.33	190.00 ± 58.59	103.33 ± 3.33	–	–	–	–	–	–	–	–
WTLNSAGYLLGPEHPPPALALA-NH2 [M871]	no effects on the heart or kidneys	136.67 ± 36.67	213.33 ± 103.49	99.67 ± 0.88	230.00 ± 52.92	26.55 ± 1.67	0.79 ± 0.041	23.33 ± 0.49	0.68 ± 0.012	26.97 ± 0.83	0.81 ± 0.063	23.04 ± 0.92	0.67 ± 0.042
